Assay results reported in US20240368181A1, “QUINOXALINE DERIVATIVES AND USES THEREOF” (Black Diamond Therapeutics, Inc., priority 2021, published 2024).
pIC50: −log10 of the molar value.

Key:
Format in all cases: cell-based
[1] = tested on: SNU-16 (FGFR2-amplification) cells; experiment: cell proliferation assay (CellTiterGlo), SNU-16 cells; details: Homo sapiens, 72 hours
Text: (§1) In some embodiments, the biological assay assess the ability of the compounds to inhibit cell proliferation.
(§2) In some embodiments, cells (e.g., SNU-16 (FGFR2-amplification) cells) may be suspended and dispensed in plates. In some embodiments, cells (e.g., UM-UC-14 (FGFR3-S249C) cells) may be suspended and dispensed in plates. In some embodiments, cells (e.g., DMS-114 (FGFR1 overexpression) cells) may by suspended and dispensed in plates. In some embodiments, cells (e.g., RT-112 (FGFR3-Tacc3 fusion) cells) may be suspended and dispensed in plates. In some embodiments, to determine the effect of the compounds of the present disclosure on cell proliferation, cells (e.g., SNU-16, UM-UC-14, DMS-114 and […] cells) may be incubated in the presence of vehicle control (e.g., DMSO) or a compound of the present disclosure at varying concentrations and the inhibition of cell growth may be determined by luminescent quantification (e.g., of intracellular ATP content using CellTiterGlo), according to the manufacturers protocol. In some embodiments, to determine the IC50 values, the vehicle-treated cells were normalized as viable cells and the growth was analyzed using a software (e.g., the CDD Vault software (Collaborative Drug Discovery, Burlingame, CA)).

[2] = tested on: UM-UC-14 (FGFR3-S249C) cells; experiment: cell proliferation assay (CellTiterGlo), UM-UC-14 cells; details: UMUC14, 72 h
Text: as §1, §2

[3] = tested on: DMS-114 (FGFR1 overexpression) cells; experiment: cell proliferation assay (CellTiterGlo), DMS-114 cells; details: Homo sapiens, DMS-114, 72 h
Text: as §1, §2

[4] = tested on: RT-112 (FGFR3-Tacc3 fusion) cells; experiment: cell proliferation assay (CellTiterGlo), RT-112 cells; details: Homo sapiens, RT-112, RT112 cells, 72 hours
Text: as §1, §2

Row | Structure (SMILES) | pIC50 [1] | pIC50 [2] | pIC50 [3] | pIC50 [4]
1 | Cc1nc2ccc(Oc3ccc4ncc(-c5cnn(CC6(N)CC6)c5)nc4c3Cl)cc2[nH]1 [Compound 93] | 6.40 to 7.00 | 7.00 to 7.70 | ≤ 6.40 | 6.40 to 7.00
2 | Cc1nc2ccc(Oc3ccc4ncc(-c5cnn(CC6CC(F)(F)C6)c5)nc4c3C3CCOCC3)cc2[nH]1 [Compound 94] | ≤ 6.40 | ≤ 6.40 | ≤ 6.40 | ≤ 6.40
3 | Cc1nc2ccc(Oc3ccc4ncc(-c5cnn(CC6CC(F)(F)C6)c5)nc4c3N3CCOC3=O)c(F)c2[nH]1 [Compound 95] | 6.40 to 7.00 | ≤ 6.40 | ≤ 6.40 | 6.40 to 7.00
4 | Cc1nc2ccc(Oc3ccc4ncc(-c5cnn(CC6CC(F)(F)C6)c5)nc4c3-n3ccnc3)c(F)c2[nH]1 [Compound 96] | 7.00 to 7.70 | – | 6.40 to 7.00 | 7.00 to 7.70
5 | Cc1nc2ccc(Oc3ccc4ncc(-c5cnn(CC6CC(F)(F)C6)c5)nc4c3C3COC3)cc2[nH]1 [Compound 97] | 7.00 to 7.70 | 6.40 to 7.00 | ≤ 6.40 | 6.40 to 7.00
6 | CC(=O)NC1(Cn2cc(-c3cnc4ccc(Oc5ccc6nc(C)[nH]c6c5)c(Cl)c4n3)cn2)CC1 [Compound 98] | 6.40 to 7.00 | ≤ 6.40 | ≤ 6.40 | 6.40 to 7.00
7 | Cc1nc2ccc(Oc3ccc4ncc(-c5cnn(CC6(NS(C)(=O)=O)CC6)c5)nc4c3Cl)cc2[nH]1 [Compound 99] | 6.40 to 7.00 | ≤ 6.40 | ≤ 6.40 | 6.40 to 7.00
8 | Cc1nc2ccc(Oc3ccc4ncc(-c5cnn(CC6CC(F)(F)C6)c5)nc4c3C3=CCOCC3)cc2[nH]1 [Compound 100] | 7.00 to 7.70 | 7.00 to 7.70 | 6.40 to 7.00 | > 7.70
9 | Cc1nc2ccc(Oc3ccc4ncc(-c5cnn([C@@H](C)CO)c5)nc4c3Cl)c(F)c2[nH]1 [Compound 106] | > 7.70 | > 7.70 | 6.40 to 7.00 | > 7.70
10 | Cc1nc2ccc(Oc3ccc4ncc(-c5cnn([C@H](C)CO)c5)nc4c3Cl)c(F)c2[nH]1 [Compound 107] | > 7.70 | > 7.70 | 6.40 to 7.00 | > 7.70
11 | Cc1nc2ccc(Oc3ccc4ncc(-c5cnn([C@@H](C)C6CC(F)(F)C6)c5)nc4c3Cl)c(F)c2[nH]1 [Compound 108] | > 7.70 | 7.00 to 7.70 | 6.40 to 7.00 | 7.00 to 7.70
12 | Cc1nc2ccc(Oc3ccc4ncc(-c5cnn([C@H](C)C6CC(F)(F)C6)c5)nc4c3Cl)c(F)c2[nH]1 [Compound 109] | > 7.70 | > 7.70 | 6.40 to 7.00 | > 7.70
13 | COC1(Cn2cc(-c3cnc4ccc(Oc5ccc6nc(C)[nH]c6c5)c(Cl)c4n3)cn2)CC1 [Compound 110] | 7.00 to 7.70 | 7.00 to 7.70 | ≤ 6.40 | 7.00 to 7.70
14 | Cc1nc2ccc(Oc3ccc4ncc(-c5cnn(Cc6nnc(C)o6)c5)nc4c3Cl)cc2[nH]1 [Compound 111] | 7.00 to 7.70 | 7.00 to 7.70 | ≤ 6.40 | 7.00 to 7.70
15 | COC(=O)C(C)(C)n1cc(-c2cnc3ccc(Oc4ccc5nc(C)[nH]c5c4F)c(Cl)c3n2)cn1 [Compound 112] | > 7.70 | > 7.70 | 6.40 to 7.00 | 7.00 to 7.70
16 | Cc1nc2ccc(Oc3ccc4ncc(-c5cnn(C(C)(C)C(=O)O)c5)nc4c3Cl)c(F)c2[nH]1 [Compound 115] | ≤ 6.40 | ≤ 6.40 | ≤ 6.40 | ≤ 6.40
17 | Cc1nc2ccc(Oc3ccc4ncc(-c5cnn(C[C@H](C)O)c5)nc4c3Cl)cc2[nH]1 [Compound 119] | 7.00 to 7.70 | > 7.70 | 6.40 to 7.00 | 7.00 to 7.70
18 | Cc1nc2ccc(Oc3ccc4ncc(-c5cnn(C6CCN(CC(F)(F)F)C7(CC7)C6)c5)nc4c3Cl)c(F)c2[nH]1 (centres unmarked) [Compound 121] | 7.00 to 7.70 | 7.00 to 7.70 | ≤ 6.40 | 7.00 to 7.70
19 | Cc1nc2ccc(Oc3ccc4ncc(-c5cnn(CC6CC(F)(F)C6)c5)nc4c3Cl)c(Cl)c2[nH]1 [Compound 136] | 6.40 to 7.00 | – | – | 6.40 to 7.00
20 | Cc1nc2ccc(Oc3ccc4ncc(-c5cnn(CC6(O)CC6)c5)nc4c3F)c(Cl)c2[nH]1 [Compound 137] | 6.40 to 7.00 | – | – | 6.40 to 7.00
21 | Cc1nc2ccc(Oc3ccc4ncc(-c5cnn(CC6(O)COC6)c5)nc4c3Cl)c(F)c2[nH]1 [Compound 138] | ≤ 6.40 | – | – | ≤ 6.40
